The record followed here is US12459951B2, “Compounds that interact with RAS superfamily proteins for treatment of cancers, inflammatory diseases, rasopathies, and fibrotic disease” (SHY Therapeutics, LLC, priority 2022, dated 2025).

Series [1] in a line: Mouse Liver Microsome Metabolic Stability Assay. The format is in vitro ADME. As to conditions: pH 7.4, Mouse liver microsomes, 37° C., NADPH, read-out: t½. Here is the method:
Biological Example 10: Assessment of Metabolic Stability in Mouse Liver Microsomes
Metabolic Stability Assay: Microsomal incubations were carried out in 96-well plates in 5 aliquots of 30 μL each (one for each time point). Liver microsomal incubation medium comprised of phosphate buffer (100 mM, pH 7.4), MgCl2 (3.3 mM), NADPH (3 mM), glucose-6-phosphate (5.3 mM), glucose-6-phosphate dehydrogenase (0.67 units/ml) with 0.42 mg of liver microsomal protein per mL. In the control reactions the NADPH-cofactor system was substituted with phosphate buffer. Test compounds (2 μM, final solvent concentration 1.6%) were incubated with microsomes at 37° C., shaking at 100 rpm. Each reaction was performed in duplicates. Five time points over 40 minutes were analyzed. The reactions were stopped by adding 5 volumes of methanol containing internal standard to incubation aliquots, followed by protein sedimentation by centrifuging at 5500 rpm for 4 minutes. Supernatants were analyzed using the HPLC system coupled with tandem mass spectrometer.
The elimination constant (kel), half-life (t1/2) and intrinsic clearance (Clint) were determined in plot of […] versus time, using linear regression analysis:
In order to indicate the quality of the linear regression analysis, the R (correlation coefficient) values are provided. In some cases, the last time point is excluded from the calculations to ensure acceptable logarithmic linearity of decay.
Table 9 show metabolic stability data for selected compounds tested in the Mouse Liver Microsome Metabolic Stability assay described above.

The next series has as its system KRas G12C mutant. In words: Ras GTP Binding Domain Inhibition Assay (Ras Superfamily Assay). Particulars: for KRas G12C mutant + SOS: % inh.: with SOS; for KRas G12C mutant: % inh.: without SOS. In a few lines:
(§1)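 Ni-plate capture of His-tagged protein (10-30 μg/mL, o/n 4° C); cpd 20 μM or dilution series, 1% DMSO, 3 h RT ± Sos 556-1049 last h; 100 nM Cy-labelled GTP 45 min RT; 3× wash; fluorescence read.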

A further series concerns KRas Q61H mutant. Described as above. Particulars: 20 μM compound; for KRas Q61H mutant + SOS: % inh.: with SOS; for KRas Q61H mutant: % inh.: without SOS. In a few lines: as §1
Another series concerns the target T1, Rho-A (Homo sapiens, UniProt P61586).
T1 construct: made in house
Described as above. As to conditions: read-out: Rho-A: % inh.. The procedure, abridged: as §1

A value given as a limit tells only on which side of the number the result lay.

T1 sequence (P61586 whole entry): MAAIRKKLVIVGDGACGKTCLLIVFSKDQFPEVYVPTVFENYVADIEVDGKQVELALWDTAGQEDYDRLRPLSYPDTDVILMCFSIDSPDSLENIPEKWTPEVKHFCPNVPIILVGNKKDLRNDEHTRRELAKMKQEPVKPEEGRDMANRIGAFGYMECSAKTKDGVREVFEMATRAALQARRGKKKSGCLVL

For `COc1cc(Nc2nc(-c3nccn3C)nn3cc(-c4ccn(C)n4)c(C)c23)ncc1C` [Compound 235, N-(4-Methoxy-5-methylpyridin-2-yl)-5-methyl-2-(1-methyl-1H-imidazol-2-yl)-6-(1-methyl-1H-pyrazol-3-yl)pyrrolo[2,1-f][1,2,4]triazin-4-amine], in series [1], the half-life at 2 µM was above 10 min.
Regarding `Cc1ccc(Nc2nc(-c3nccn3C)nn3cc(-c4ccn(C)n4)c(C)c23)nc1` [Compound 226, 5-Methyl-2-(1-methyl-1H-imidazol-2-yl)-6-(1-methyl-1H-pyrazol-3-yl)-N-(5-methylpyridin-2-yl)pyrrolo[2,1-f][1,2,4]triazin-4-amine], in series [1], the half-life at 2 µM was above 10 min.
On to `COCCNc1nc(-c2nccn2C)nn2cc(-c3cccc(OC)c3Cl)c(C)c12` [Compound 16, 6-(2-Chloro-3-methoxyphenyl)-N-(2-methoxyethyl)-5-methyl-2-(1-methyl-1H-imidazol-2-yl)pyrrolo[2,1-f][1,2,4]triazin-4-amine], for which, in the series with KRas G12C mutant (20 μM compound), the “KRas G12C mutant + SOS: % inh.” value is 0 (0 = 0% inhibition) and the “KRas G12C mutant: % inh.” value is “B (B = 26-49% inhibition)”. For the same molecule, in the series on KRas Q61H mutant, the “KRas Q61H mutant + SOS: % inh.” value was 0 (0 = 0% inhibition) and the “KRas Q61H mutant: % inh.” value is reported as “A (A = 1-25% inhibition)”. Further, at Rho-A, the inhibition at 20 µM is 0%.
As for `Cc1c(-c2ccn(C)n2)cn2nc(-c3nccn3C)nc(Nc3ccc(N(C)C)cn3)c12` [Compound 227, N5,N5-Dimethyl-N2-(5-methyl-2-(1-methyl-1H-imidazol-2-yl)-6-(1-methyl-1H-pyrazol-3-yl)pyrrolo[2,1-f][1,2,4]triazin-4-yl)pyridine-2,5-diamine], the half-life at 2 µM in series [1] is above 10 min.
For the molecule `Cc1c(-c2ccn(C)n2)cn2nc(-c3nccn3C)nc(N)c12` [Compound 211, 5-Methyl-2-(1-methyl-1H-imidazol-2-yl)-6-(1-methyl-1H-pyrazol-3-yl)pyrrolo[2,1-f][1,2,4]triazin-4-amine], in the series with KRas G12C mutant (at 20 μM), the “KRas G12C mutant + SOS: % inh.” value is listed as “D (D = 76-100% inhibition)” and the “KRas G12C mutant: % inh.” value is reported as “C (C = 50-75% inhibition)”.
As for `COc1cccc(-c2cn3nc(-c4nccn4C)nc(O)c3c2C)c1Cl` [Compound 15, 6-(2-Chloro-3-methoxyphenyl)-5-methyl-2-(1-methyl-1H-imidazol-2-yl)pyrrolo[2,1-f][1,2,4]triazin-4-ol], in the series on KRas G12C mutant (20 μM compound), the “KRas G12C mutant + SOS: % inh.” value was 0 (0 = 0% inhibition) and the “KRas G12C mutant: % inh.” value is reported as 0 (0 = 0% inhibition). In the series with KRas Q61H mutant, the “KRas Q61H mutant + SOS: % inh.” value is given as “A (A = 1-25% inhibition)” and the “KRas Q61H mutant: % inh.” value is reported as “A (A = 1-25% inhibition)”. Further, at Rho-A, the inhibition at 20 µM was 1 to 25%.
`COC1CCCN(c2nc(-c3ccccn3)nn3cc(-c4ccn(C(C)C)n4)c(C)c23)C1` (racemic) [Compound 12, rac 6-(1-Isopropyl-1H-pyrazol-3-yl)-4-(3-methoxypiperidin-1-yl)-5-methyl-2-(pyridin-2-yl)pyrrolo[2,1-f][1,2,4]triazine]: in the series with KRas G12C mutant (20 μM compound), the “KRas G12C mutant + SOS: % inh.” value is 0 (0 = 0% inhibition) and the “KRas G12C mutant: % inh.” value is listed as “B (B = 26-49% inhibition)”. In the series on KRas Q61H mutant, the “KRas Q61H mutant + SOS: % inh.” value is given as 0 (0 = 0% inhibition) and the “KRas Q61H mutant: % inh.” value was 0 (0 = 0% inhibition). Moreover, the inhibition at 20 µM on Rho-A came to 0%.
As to `COc1cc(Nc2nc(-c3ccccn3)nn3cc(-c4ccn(C(C)C)n4)c(C)c23)ncn1` [Compound 13, 6-(1-Isopropyl-1H-pyrazol-3-yl)-N-(6-methoxypyrimidin-4-yl)-5-methyl-2-(pyridin-2-yl)pyrrolo[2,1-f][1,2,4]triazin-4-amine], in the series on KRas G12C mutant (20 μM compound), the “KRas G12C mutant + SOS: % inh.” value is 0 (0 = 0% inhibition) and the “KRas G12C mutant: % inh.” value is “A (A = 1-25% inhibition)”. Besides, in the series on KRas Q61H mutant, the “KRas Q61H mutant + SOS: % inh.” value is 0 (0 = 0% inhibition) and the “KRas Q61H mutant: % inh.” value is 0 (0 = 0% inhibition). In addition, on Rho-A, the inhibition at 20 µM was found to be 0%.
`COc1ccc(Nc2nc(-c3nccn3C)nn3cc(-c4ccn(C)n4)c(C)c23)nc1` [Compound 224, N-(5-Methoxypyridin-2-yl)-5-methyl-2-(1-methyl-1H-imidazol-2-yl)-6-(1-methyl-1H-pyrazol-3-yl)pyrrolo[2,1-f][1,2,4]triazin-4-amine]: in series [1], the half-life at 2 µM is above 10 min.
As for `COC[C@@H]1CC[C@@H]1CNc1nc(-c2ccccn2)nn2cc(-c3ccn(C(C)C)n3)c(C)c12` (racemic) [Compound 11, rac 6-(1-Isopropyl-1H-pyrazol-3-yl)-N-(((1S,2R)-2-(methoxymethyl)cyclobutyl)methyl)-5-methyl-2-(pyridin-2-yl)pyrrolo[2,1-f][1,2,4]triazin-4-amine], in the series on KRas G12C mutant (20 μM compound), the “KRas G12C mutant + SOS: % inh.” value is recorded as 0 (0 = 0% inhibition) and the “KRas G12C mutant: % inh.” value is listed as “B (B = 26-49% inhibition)”. Moreover, in the series on KRas Q61H mutant, the “KRas Q61H mutant + SOS: % inh.” value is given as 0 (0 = 0% inhibition) and the “KRas Q61H mutant: % inh.” value is “A (A = 1-25% inhibition)”. In addition, the inhibition at 20 µM on Rho-A is 0%.
As for `COc1cccc(Nc2nc(-c3ccccn3)nn3cc(-c4ccn(C(C)C)n4)c(C)c23)n1` [Compound 14, 6-(1-Isopropyl-1H-pyrazol-3-yl)-N-(6-methoxypyridin-2-yl)-5-methyl-2-(pyridin-2-yl)pyrrolo[2,1-f][1,2,4]triazin-4-amine], in the series on KRas G12C mutant (20 μM compound), the “KRas G12C mutant + SOS: % inh.” value is 0 (0 = 0% inhibition) and the “KRas G12C mutant: % inh.” value is “B (B = 26-49% inhibition)”. In addition, in the series on KRas Q61H mutant, the “KRas Q61H mutant + SOS: % inh.” value is reported as 0 (0 = 0% inhibition) and the “KRas Q61H mutant: % inh.” value is on record as 0 (0 = 0% inhibition). The inhibition at 20 µM at Rho-A turned out to be 0%.
With `Cc1c(-c2ccn(C)n2)cn2nc(-c3nccn3C)nc(Nc3cc(N4CCOCC4)ccn3)c12` [Compound 222, 5-Methyl-2-(1-methyl-1H-imidazol-2-yl)-6-(1-methyl-1H-pyrazol-3-yl)-N-(4-morpholinopyridin-2-yl)pyrrolo[2,1-f][1,2,4]triazin-4-amine], the half-life at 2 µM in series [1] was below 10 min.
For `COc1cc(Nc2nc(-c3nccn3C)nn3cc(-c4ccn(C)n4)c(C)c23)ncc1C1CC1` [Compound 238, N-(5-Cyclopropyl-4-methoxypyridin-2-yl)-5-methyl-2-(1-methyl-1H-imidazol-2-yl)-6-(1-methyl-1H-pyrazol-3-yl)pyrrolo[2,1-f][1,2,4]triazin-4-amine], in series [1], the half-life at 2 µM was above 10 min.
Turning to `COCC1CCN(c2nc(-c3ccccn3)nn3cc(-c4ccn(C(C)C)n4)c(C)c23)C1` (racemic) [Compound 10, rac 6-(1-Isopropyl-1H-pyrazol-3-yl)-4-(3-(methoxymethyl)pyrrolidin-1-yl)-5-methyl-2-(pyridin-2-yl)pyrrolo[2,1-f][1,2,4]triazine], in the series with KRas G12C mutant (20 μM compound), the “KRas G12C mutant + SOS: % inh.” value is recorded as 0 (0 = 0% inhibition) and the “KRas G12C mutant: % inh.” value is “B (B = 26-49% inhibition)”. For the same molecule, in the series on KRas Q61H mutant, the “KRas Q61H mutant + SOS: % inh.” value is 0 (0 = 0% inhibition) and the “KRas Q61H mutant: % inh.” value is given as “A (A = 1-25% inhibition)”. Also, at Rho-A, the inhibition at 20 µM is 0%.
